According to the Kinase Knowledgebase extract (Sharma et al. 2016):

Assays:
CDK2 = CDK2 (UniProt P24941); experiment: Enzyme Assay
EGFR = EGFR (UniProt P00533); settings: concentration not given here
Sequence of EGFR (P00533 whole entry, looked up): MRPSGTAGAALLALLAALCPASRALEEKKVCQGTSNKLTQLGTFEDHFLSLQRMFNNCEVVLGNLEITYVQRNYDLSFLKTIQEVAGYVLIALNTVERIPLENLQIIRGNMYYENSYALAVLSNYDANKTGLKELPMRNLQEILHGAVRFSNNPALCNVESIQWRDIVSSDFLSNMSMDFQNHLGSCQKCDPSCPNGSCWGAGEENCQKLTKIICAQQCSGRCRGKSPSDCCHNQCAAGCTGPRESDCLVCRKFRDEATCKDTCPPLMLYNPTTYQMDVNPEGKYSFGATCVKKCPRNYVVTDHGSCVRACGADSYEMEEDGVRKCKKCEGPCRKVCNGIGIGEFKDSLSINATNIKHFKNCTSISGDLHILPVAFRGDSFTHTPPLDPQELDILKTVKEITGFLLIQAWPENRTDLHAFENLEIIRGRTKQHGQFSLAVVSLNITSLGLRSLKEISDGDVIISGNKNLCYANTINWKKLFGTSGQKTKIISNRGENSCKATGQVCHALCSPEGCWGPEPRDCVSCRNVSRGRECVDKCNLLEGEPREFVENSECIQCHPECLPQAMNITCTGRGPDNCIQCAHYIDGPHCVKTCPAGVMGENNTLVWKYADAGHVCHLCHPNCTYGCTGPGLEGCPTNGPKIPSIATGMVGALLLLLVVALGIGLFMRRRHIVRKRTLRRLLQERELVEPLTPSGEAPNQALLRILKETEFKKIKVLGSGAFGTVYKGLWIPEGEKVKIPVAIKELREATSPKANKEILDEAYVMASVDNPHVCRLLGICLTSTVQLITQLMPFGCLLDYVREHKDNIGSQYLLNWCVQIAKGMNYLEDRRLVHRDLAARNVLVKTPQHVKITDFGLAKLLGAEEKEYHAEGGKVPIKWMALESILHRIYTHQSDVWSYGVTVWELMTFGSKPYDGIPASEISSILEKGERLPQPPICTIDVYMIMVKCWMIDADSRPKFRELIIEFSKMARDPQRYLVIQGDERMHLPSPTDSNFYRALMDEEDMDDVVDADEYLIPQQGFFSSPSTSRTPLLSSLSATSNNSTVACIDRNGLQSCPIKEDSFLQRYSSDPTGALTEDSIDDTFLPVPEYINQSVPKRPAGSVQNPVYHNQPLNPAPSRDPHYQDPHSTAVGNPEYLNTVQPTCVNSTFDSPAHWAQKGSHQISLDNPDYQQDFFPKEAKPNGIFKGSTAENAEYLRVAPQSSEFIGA

Row | SMILES | IC50 (CDK2) | inhibition (EGFR)
1 | COc1ccccc1-c1cc(Nc2ccc(NC(=O)[C@@H]3CCCCN3)cc2)ncn1 | 1 to 10 µM | > 80%
2 | Cc1ccc(Nc2cc(-c3cccc(N)c3)ncn2)cc1NS(C)(=O)=O | 0.001 to 1 µM | > 80%
3 | CC(C)Oc1ccccc1-c1cc(Nc2ccc(NC(=O)c3ccc(N)cc3)cc2)ncn1 | 0.001 to 1 µM | 50 to 80%
4 | CNC(C)(C)C(=O)Nc1ccc(Nc2cc(-c3ccccc3OC)ncn2)cc1 | 1 to 10 µM | > 80%
5 | COc1ccccc1-c1cc(Nc2ccc(NC(=O)[C@@H]3Cc4ccccc4CN3)cc2)ncn1 | 1 to 10 µM | > 80%
6 | COc1ccccc1-c1cc(Nc2ccc(C(=O)NC3CCCNC3)cc2)ncn1 (stereo not drawn) | 0.001 to 1 µM | > 80%
7 | COc1ccccc1-c1cc(Nc2ccc(NC(=O)c3cn(C)cn3)cc2)ncn1 | 1 to 10 µM | 50 to 80%
8 | COc1ccccc1-c1cc(Nc2ccc(NC(=O)CC3CCCCN3)cc2)ncn1 (stereo not drawn) | 1 to 10 µM | > 80%
9 | NC(=O)c1ccc(Nc2cc(-c3ccccc3OCc3ccccc3)ncn2)cc1 | 0.001 to 1 µM | 50 to 80%
10 | COc1ccccc1-c1cc(Nc2ccc(NC(=O)[C@H]3CCCCN3)cc2)ncn1 | 1 to 10 µM | > 80%
11 | COc1ccccc1-c1cc(Nc2ccc(C(=O)N[C@@H]3CCCC[C@H]3N)cc2)ncn1.COc1ccccc1-c1cc(Nc2ccc(C(=O)N[C@H]3CCCC[C@@H]3N)cc2)ncn1 | 1 to 10 µM | 50 to 80%
12 | COc1ccccc1-c1cc(Nc2ccc(NC(=O)Cc3ccccc3)cc2)ncn1 | 1 to 10 µM | 30 to 50%
13 | COc1ccccc1-c1cc(Nc2ccc(C(=O)NC(C)(C)C)cc2)ncn1 | 1 to 10 µM | 
14 | COc1ccc(-c2cc(Nc3ccc(C)c(NS(C)(=O)=O)c3)ncn2)cc1 | 0.001 to 1 µM | 
15 | COC(=O)CN(c1ccc(Nc2cc(-c3ccccc3OC)ncn2)cc1)S(=O)(=O)c1ccc(C)cc1 | 1 to 10 µM | 
16 | COc1ccccc1-c1cc(Nc2ccc(NC(=O)C3(N)CCCCC3)cc2)ncn1 | 1 to 10 µM | > 80%
17 | COc1ccccc1-c1cc(Nc2ccc(NC(=O)c3nc4ccccc4s3)cc2)ncn1 | 10 to 250 µM | 
18 | Nc1ccc(C(=O)Nc2ccc(Nc3cc(/C=C/c4ccccc4)ncn3)cc2)cc1 | 10 to 250 µM | 
19 | COc1ccccc1-c1cc(Nc2ccc(NC(=O)c3c[nH]c4ccccc34)cc2)ncn1 | 1 to 10 µM | 
20 | CC(C)(C)C(=O)Nc1ccc(Nc2cc(-c3ccccc3F)ncn2)cc1 | 10 to 250 µM | 
21 | Nc1ccc(C(=O)Nc2ccc(Nc3cc(-c4ccccc4OCc4ccccc4)ncn3)cc2)cc1 | 1 to 10 µM | 30 to 50%
22 | COc1ccccc1-c1cc(Nc2cccc(NC(=O)C(C)(C)C)c2)ncn1 | 1 to 10 µM | 
23 | COc1ccccc1-c1cc(Nc2ccc(C(=O)Nc3ccc(C(C)C)cc3)cc2)ncn1 | 10 to 250 µM | 
24 | CSc1ccccc1-c1cc(Nc2ccc(NC(=O)[C@@H]3CCCCN3)cc2)ncn1 | 1 to 10 µM | 

Row | SMILES | IC50 (CDK2) | inhibition (EGFR)
25 | CC(C)Oc1ccccc1-c1cc(Nc2ccc(C(=O)N[C@@H]3CCCC[C@H]3N)cc2)ncn1.CC(C)Oc1ccccc1-c1cc(Nc2ccc(C(=O)N[C@H]3CCCC[C@@H]3N)cc2)ncn1 | 1 to 10 µM | 
26 | COc1ccccc1-c1cc(Nc2ccc(C(N)=O)cc2)ncn1 | 0.001 to 1 µM | 
27 | COc1ccccc1-c1cc(Nc2ccc(NC(=O)C3CCN(C)CC3)cc2)ncn1 | 1 to 10 µM | 
28 | COc1ccccc1-c1cc(Nc2ccc(NC(=O)C(C)(C)C)cc2C)ncn1 | 10 to 250 µM | 
29 | COc1ccccc1-c1cc(Nc2ccc(NS(C)(=O)=O)cc2)ncn1 | 0.001 to 1 µM | 50 to 80%
30 | Cc1ccc(Nc2cc(-c3ccccc3OCc3ccccc3)ncn2)cc1NS(C)(=O)=O | 0.001 to 1 µM | 
31 | Cc1ccc(Nc2cc(-c3cccc(C=O)c3)ncn2)cc1NS(C)(=O)=O | 1 to 10 µM | 
32 | COc1ccccc1-c1cc(Nc2ccc(NC(=O)C(N)c3ccc4ccccc4c3)cc2)ncn1 (stereo not drawn) | 1 to 10 µM | 
33 | COc1ccccc1-c1ncnc(Nc2ccc(N)cc2)c1C | 10 to 250 µM | 
34 | CC(C)(C)C(=O)Nc1ccc(Nc2cc(-c3cccnc3)ncn2)cc1 | 10 to 250 µM | 
35 | Nc1cccc(-c2cc(NCCc3ccncc3)ncn2)c1 | 1 to 10 µM | 
36 | COc1ccccc1-c1cc(Nc2ccc(NC(=O)C3CCCN(C)C3)cc2)ncn1 (stereo not drawn) | 1 to 10 µM | > 80%
37 | COc1ccc(-c2cc(NCCc3ccncc3)ncn2)cc1 | 10 to 250 µM | 
38 | Cc1ccc(Nc2cc(-c3cccc(C(F)(F)F)c3)ncn2)cc1NS(C)(=O)=O | 10 to 250 µM | 
39 | Cc1ccc(S(=O)(=O)Nc2ccc(Nc3cc(Cl)ncn3)cc2)cc1 | 1 to 10 µM | 
40 | Nc1cccc(-c2cc(Nc3cccc(S(N)(=O)=O)c3)ncn2)c1 | 1 to 10 µM | 
41 | Cc1ccc(Nc2cc(-c3cccc(N)c3)ncn2)cc1NS(=O)(=O)c1ccccc1 | 1 to 10 µM | 50 to 80%
42 | COc1ccc(-c2cc(Nc3ccc(NC(=O)c4ccc(N)cc4)cc3)ncn2)cc1 | 1 to 10 µM | 
43 | COc1ccccc1-c1cc(Nc2ccc(NC(=O)C34CC5CC(CC(C5)C3)C4)cc2)ncn1 | 10 to 250 µM | 
44 | COC(=O)CN(c1ccc(Nc2cc(-c3ccc(O)cc3)ncn2)cc1)S(=O)(=O)c1ccc(C)cc1 | 0.001 to 1 µM | 
45 | Cc1ccc(S(=O)(=O)Nc2ccc(Nc3cc(-c4ccc(O)cc4)ncn3)cc2)cc1 | 0.001 to 1 µM | 
46 | CC[C@H](C)[C@H](N)C(=O)Nc1ccc(Nc2cc(-c3ccccc3OC)ncn2)cc1 | 1 to 10 µM | 
47 | COc1ccccc1-c1cc(Nc2ccc(N)cc2C)ncn1 | 1 to 10 µM | 
48 | Cc1ccc(Nc2cc(-c3cccc(O)c3)ncn2)cc1NS(C)(=O)=O | 0.001 to 1 µM | 

Row | SMILES | IC50 (CDK2) | inhibition (EGFR)
49 | COc1cccc(-c2cc(Nc3ccc(NC(=O)c4ccc(N)cc4)cc3)ncn2)c1OC | 1 to 10 µM | 
50 | COc1ccccc1-c1cc(Nc2ccc(NC(=O)[C@@H]3CCN3)cc2)ncn1 | 1 to 10 µM | 
51 | Cc1ccc(Nc2cc(-c3cccc(NS(C)(=O)=O)c3)ncn2)cc1CS(N)(=O)=O | 0.001 to 1 µM | 
52 | Cc1ccc(Nc2cc(-c3ccccc3)ncn2)cc1NS(C)(=O)=O | 0.001 to 1 µM | 
53 | COc1ccccc1-c1cc(Nc2ccc(NC(=O)[C@@H](N)C(C)C)cc2)ncn1 | 1 to 10 µM | 
54 | CCCS(=O)(=O)Nc1ccc(Nc2cc(-c3ccccc3OC)ncn2)cc1 | 0.001 to 1 µM | 
55 | COc1ccc(-c2cc(Nc3ccc(NC(=O)c4ccc(N)cc4)cc3)ncn2)c(OC)c1 | 0.001 to 1 µM | 
56 | Nc1ccc(C(=O)Nc2ccc(Nc3cc(Cl)ncn3)cc2)cc1 | 10 to 250 µM | 
57 | COc1ccc(-c2cc(Nc3ccc(NS(=O)(=O)c4ccc(C)cc4)cc3)ncn2)cc1 | 1 to 10 µM | 
58 | CCCS(=O)(=O)Nc1cc(Nc2cc(-c3cccc(N)c3)ncn2)ccc1C | 0.001 to 1 µM | > 80%
59 | COC(=O)c1ccc(Nc2cc(-c3ccccc3OC)ncn2)cc1 | 0.001 to 1 µM | 
60 | COc1ccccc1-c1cc(Nc2ccc(NC(=O)NC3CCCCC3)cc2)ncn1 | 1 to 10 µM | 30 to 50%
61 | COc1ccccc1-c1cc(Nc2ccc(NC(=O)C3CCCCC3)cc2)ncn1 | 10 to 250 µM | 
62 | COc1ccccc1-c1cc(Nc2ccc(NC(=O)CCN)cc2)ncn1 | 1 to 10 µM | > 80%
63 | COc1ccccc1-c1cc(Nc2ccc(N)cc2)ncn1 | 0.001 to 1 µM | > 80%
64 | O=C(Nc1ccc(Nc2cc(-c3ccccc3Cl)ncn2)cc1)[C@@H]1CCCCN1 | 10 to 250 µM | 
65 | COc1ccccc1-c1cc(Nc2ccc(NC(C)=O)cc2)ncn1 | 0.001 to 1 µM | 50 to 80%
66 | Cc1ccc(S(=O)(=O)Nc2ccc(Nc3cc(-c4ccc(CCC(=O)O)cc4)ncn3)cc2)cc1 | 10 to 250 µM | 
67 | Nc1ccc(C(=O)Nc2ccc(Nc3cc(NCC4CCCCC4)ncn3)cc2)cc1 | 10 to 250 µM | 
68 | COc1ccccc1-c1cc(Nc2ccc(NS(=O)(=O)c3ccc(C(C)C)cc3)cc2)ncn1 | 1 to 10 µM | 
69 | CS(=O)(=O)Nc1cccc(-c2cc(Nc3ccc(C(=O)N[C@@H]4CCCC[C@H]4N)cc3)ncn2)c1.CS(=O)(=O)Nc1cccc(-c2cc(Nc3ccc(C(=O)N[C@H]4CCCC[C@@H]4N)cc3)ncn2)c1 | 1 to 10 µM | 
70 | CN[C@H](C(=O)Nc1ccc(Nc2cc(-c3ccccc3OC)ncn2)cc1)c1ccccc1 | 1 to 10 µM | > 80%
71 | NCCCOc1ccccc1-c1cc(Nc2ccc(NC(=O)c3ccc(N)cc3)cc2)ncn1 | 1 to 10 µM | > 80%
72 | CCOc1ccccc1-c1cc(Nc2ccc(NC(=O)c3ccc(N)cc3)cc2)ncn1 | 1 to 10 µM | 

Row | SMILES | IC50 (CDK2) | inhibition (EGFR)
73 | COc1ccccc1-c1cc(Nc2ccc(NC(=O)C(c3ccccc3)N(C)C)cc2)ncn1 (stereo not drawn) | 1 to 10 µM | 
74 | COc1ccccc1-c1cc(Nc2ccc(C(=O)Nc3ccc(N4CCOCC4)cc3)cc2)ncn1 | 1 to 10 µM | 
75 | COc1ccccc1-c1cc(Nc2ccc(NC(=O)c3ccc(N)cc3)cc2)nc(N)n1 | 10 to 250 µM | 
76 | COc1cccc(-c2cc(Nc3ccc(NS(=O)(=O)c4ccc(C)cc4)cc3)ncn2)c1 | 10 to 250 µM | 
77 | Cc1ccc(Nc2cc(-c3cccc(C#N)c3)ncn2)cc1NS(C)(=O)=O | 1 to 10 µM | 
78 | COc1ccccc1-c1cc(Nc2ccc(NC(=O)c3ccc4c(c3)OCO4)cc2)ncn1 | 1 to 10 µM | 
79 | COc1ccccc1-c1cc(Nc2ccc(NS(=O)(=O)C(C)C)cc2)ncn1 | 0.001 to 1 µM | 
80 | Nc1cccc(-c2cc(Nc3ccc(S(N)(=O)=O)cc3)ncn2)c1 | 0.001 to 1 µM | 
81 | CS(=O)(=O)Nc1cccc(Nc2cc(-c3cccc(N)c3)ncn2)c1 | 1 to 10 µM | 
82 | COc1ccccc1-c1cc(Nc2ccc(NC(=O)NCc3ccc(C)cc3)cc2)ncn1 | 10 to 250 µM | 
83 | COc1ccccc1-c1cc(Nc2ccc(NC(=O)c3ccncc3)cc2)ncn1 | 10 to 250 µM | 
84 | CCc1ccccc1-c1cc(Nc2ccc(NC(=O)C(C)(C)C)cc2)ncn1 | 1 to 10 µM | 
85 | CC(C)(C)C(=O)Nc1ccc(Nc2cc(NCCCO)ncn2)cc1 | 10 to 250 µM | 
86 | C=Cc1ccccc1-c1cc(Nc2ccc(NC(=O)C(C)(C)C)cc2)ncn1 | 10 to 250 µM | 
87 | Nc1ccc(C(=O)Nc2ccc(Nc3cc(-c4ccncc4)ncn3)cc2)cc1 | 10 to 250 µM | 
88 | COc1ccc(-c2cc(Nc3ccc(NC(=O)[C@@H]4CCCCN4)cc3)ncn2)c(OC)c1 | 1 to 10 µM | 
89 | COc1ccccc1-c1cc(Nc2ccc(NC(=O)c3ccccc3N)cc2)ncn1 | 1 to 10 µM | 
90 | COc1ccccc1-c1cc(Nc2ccc(NC(=O)NC(C)(C)C)cc2)ncn1 | 1 to 10 µM | 
91 | Cc1ccc(S(=O)(=O)Nc2ccc(Nc3cc(-c4cccc(/C=C/C(=O)O)c4)ncn3)cc2)cc1 | 10 to 250 µM | 
92 | Nc1ccc(C(=O)Nc2ccc(Nc3cc(-c4ccccc4)ncn3)cc2)cc1 | 10 to 250 µM | 
93 | COc1ccccc1-c1cc(Nc2cccc(S(N)(=O)=O)c2)ncn1 | 0.001 to 1 µM | 
94 | COc1ccccc1-c1cc(NCCc2ccncc2)ncn1 | 10 to 250 µM | 
